Measured values reported in patent US20090099167A1, “Organic compounds” (Novartis Institutes for Biomedical Research, priority 2004, published 2009).

Experiments:
[1] = target: T1, human IGF-IR (Homo sapiens, UniProt P08069); experiment: IGF-1R tyrosine kinase assay, GST-IGF-1R; format: biochemical; conditions: Table 5; read-out: IGF-1R, IC50 class
T1 construct: expresses the amino acid region 950-1337 of the mature peptide cytoplasmic domain of the human IGF-IR; made in house; host or cells: baculovirus (Bac-to-Bac)
Description: The inhibition of IGF-1R and Ins-R can be determined as follows: The baculovirus donor vector pfbgx3IGFIRcd is used to generate a recombinant baculovirus that expresses the amino acid region 950-1337 of the mature peptide cytoplasmic domain of the human IGF-IR. To generate the cDNA fragment encoding the amino acid region 919-1343 of the intra-cytoplasmic kinase domain of the human insulin receptor, pC5hInsR is used. The fragments of the human IGF-IR and Ins-R are cloned, expressed and small-scale purified as a factor Xa-cleavable glutathione-S-transferase (GST)-fusion protein using the Bac-to-Bac™ system (GIBCO BRL) of recombinant baculovirus generation. Virus containing media is collected from the transfected cell culture and used for infection to increase its titer. Virus containing media obtained after two rounds of infection is used for large-scale protein expression. Cell extracts are prepared and loaded onto a glutathione-Sepharose (Pharmacia) column. After washing, the GST-tagged proteins are then eluted with a glutathione-containing buffer. Purified protein is stored at −70° C. in elution buffer. Tyrosine protein kinase assays with purified GST-IGF-1R and GST-ins-R are carried in a final volume of 30 μl containing 20 mM Tris-HCl, pH 7.6, 10 mM MgCl2, 0.01 mM Na3VO4, 1% DMSO, 1 mM DTT, 3 μg/ml poly(Glu,Tyr) 4:1 and 10 μM ATP (γ-[^33P]-ATP 0.1 μCi). The assay is performed in 96-well plates at ambient temperature for 20 min and terminated by addition of 25 μl 0.05 M EDTA pH 7.0. An aliquot of 40 μl is spotted with a multichannel dispenser on Whatman P81 membranes mounted in a Millipore Microtiter filter manifold connected to a low vacuum source. After elimination of liquid, the membrane is transferred to a sequence of 4 washing baths containing 0.5% H3PO4 and one with EtOH (shaking incubation for 10 min each), dried, mounted onto a Hewlett Packard TopCount manifold added 10 μl Microscint® and counted. Compounds of formula (I) show up to 90% inhibition of Ins-R at 10,000 nM, preferably between 60-90% inhibition. The inhibition of Tek can be determined as follows: The procedure of the expression, purification and assay these kinases has been described. Fabbro et al., Pharmacol. Ther. 82(2-3) 293-301 (1999). In brief, the glutathione S-transferase (GST) gene from the pAcG1 vector (Pharmingen) is excised with EcoRV and EcoRI and inserted into the cloning site of the Fast-Bac baculoviral vector (GIBCO) creating a 5530 bp vector with N-terminal cloning sites derived from the pAcG1 fusion vector (FBG0). The C-terminal cloning site may be any cloning site (from the Fast-Bac vector) downstream of the N-terminal cloning site used. N-terminally GST-fused (pAcG1, Pharmingen) KDR, Flt-1, Flk-1, Tek and PDGFR-β kinase domains are obtained from ProQinase, Freiburg, Germany. Tek is recloned into the FBG1 vector by EcoRI excision and ligation into EcoRI digested FBG1 (FBG1-Tek). The coding sequences for the whole cytoplasmic domain of c-Kit (aa 544-976) and c-Fms (aa 538-972) are amplified by PCR from human uterus and from human bone marrow cDNA libraries (Clontech), respectively. The amplified DNA fragments are fused to GST by cloning them into FBG1 as BamHI-EcoRI insertions, to yield FBG1-c-Kit and FBG1-c-Fms. Tek is recloned into the FBG0 transfer vector by EcoRI excision and ligation into EcoRI digested FBG0 (FBG-Tie2/Tek). FGFR-1 and c-met kinase domains are obtained by PCR from human A431 cells. N-terminal primers contain an overhanging EcoRI site, while C-terminal primers contain a XhoI site to aid cloning into the transfer vectors. After digestion of both the PCR fragments and FBG0 the cleavage products are gel-purified and ligated together to form the kinase constructs (FBG-Met, FBG-FGFR-1).

[2] = target: T2, c-Abl kinase (Homo sapiens, UniProt P00519); experiment: c-Abl protein-tyrosine kinase filter binding assay; format: biochemical; conditions: Table 5; read-out: C-abl, IC50 class
T2 construct: The His-tagged kinase domain of c-Abl is cloned and expressed in the baculovirus/Sf9 system; His; made in house; host or cells: Sf9 (baculovirus)
T2 sequence (P00519 242-493 limits assumed): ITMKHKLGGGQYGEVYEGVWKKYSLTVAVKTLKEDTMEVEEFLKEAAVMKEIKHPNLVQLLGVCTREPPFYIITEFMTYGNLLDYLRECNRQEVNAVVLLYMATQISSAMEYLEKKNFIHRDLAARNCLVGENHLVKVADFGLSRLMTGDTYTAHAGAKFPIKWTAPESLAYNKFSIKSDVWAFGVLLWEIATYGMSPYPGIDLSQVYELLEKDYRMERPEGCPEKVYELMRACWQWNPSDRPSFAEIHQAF
How it was run: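 His-tagged c-Abl kinase domain (37 kD, Sf9-expressed) with 30 μg/mL poly-AEKY and [γ-33P]-ATP (5 μM ATP) in 20 mM Tris.HCl pH 7.5, 10 mM MgCl2, 10 μM Na3VO4, 1 mM DTT, 1% DMSO. EDTA-stopped reactions captured on PVDF membranes, washed with 0.5% H3PO4, and scintillation-counted.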

[3] = target: c-Src kinase (Homo sapiens, UniProt P12931); experiment: c-Src kinase inhibition; format: biochemical; conditions: Table 5; read-out: c-scr, IC50 class
Description: An appropriate assay is described in Andrejauskas-Buchdunger et al., Cancer Res. 52, 5353-8 (1992).

T1 sequence (P08069 980-1367): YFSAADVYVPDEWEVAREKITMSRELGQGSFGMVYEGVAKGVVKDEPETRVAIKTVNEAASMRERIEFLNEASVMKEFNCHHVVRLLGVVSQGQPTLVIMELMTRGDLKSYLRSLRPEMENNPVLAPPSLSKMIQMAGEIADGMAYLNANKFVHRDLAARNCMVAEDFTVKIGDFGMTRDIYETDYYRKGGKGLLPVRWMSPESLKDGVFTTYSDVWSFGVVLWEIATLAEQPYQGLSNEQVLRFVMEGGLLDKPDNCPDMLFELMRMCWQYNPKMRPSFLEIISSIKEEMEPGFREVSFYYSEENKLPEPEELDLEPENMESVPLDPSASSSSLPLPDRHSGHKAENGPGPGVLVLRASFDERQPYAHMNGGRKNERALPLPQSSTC
c-Src kinase, sequence (P12931 whole entry): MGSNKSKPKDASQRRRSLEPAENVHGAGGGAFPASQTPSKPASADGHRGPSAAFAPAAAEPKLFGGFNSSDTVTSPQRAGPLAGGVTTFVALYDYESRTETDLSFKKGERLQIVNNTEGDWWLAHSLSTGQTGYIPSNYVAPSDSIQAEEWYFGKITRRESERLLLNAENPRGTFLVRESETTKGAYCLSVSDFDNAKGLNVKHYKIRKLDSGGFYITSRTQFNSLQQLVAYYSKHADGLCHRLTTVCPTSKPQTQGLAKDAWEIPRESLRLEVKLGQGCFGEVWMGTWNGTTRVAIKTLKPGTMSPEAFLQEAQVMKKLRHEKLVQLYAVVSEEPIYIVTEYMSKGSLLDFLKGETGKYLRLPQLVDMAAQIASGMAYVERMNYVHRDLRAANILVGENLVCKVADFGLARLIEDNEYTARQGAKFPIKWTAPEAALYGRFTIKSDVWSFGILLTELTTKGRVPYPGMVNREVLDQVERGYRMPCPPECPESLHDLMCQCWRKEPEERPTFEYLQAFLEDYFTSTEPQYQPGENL

IC50 [1] [µM]	IC50 [2] [nM]	IC50 [3] [nM]	melting point [°C]	SMILES
> 10	< 1000	< 1000	172 to 174	Cc1nc2c(-c3cccc(N4CCN(CCO)CC4)c3)cnn2c(N)c1-c1ccc(F)c(F)c1 [Example 101, 2-(4-{3-[7-Amino-6-(3,4-difluoro-phenyl)-5-methyl-pyrazolo[1,5-a]pyrimidin-3-yl]-phenyl}-piperazin-1-yl)-ethanol]
> 10	< 1000	< 1000	188 to 193	Cc1nc2c(-c3cccc(N4CCC(N5CCCC5)CC4)c3)cnn2c(N)c1-c1cccc(Cl)c1 [Example 102, 6-(3-Chloro-phenyl)-5-methyl-3-[3-(4-pyrrolidin-1-yl-piperidin-1-yl)-phenyl]-pyrazolo[1,5-a]pyrimidin-7-ylamine]
> 10	< 1000	< 1000	244 to 249	Cc1nc2c(-c3cccc(N4CCC(N5CCCC5)CC4)c3)cnn2c(N)c1-c1ccc(F)cc1 [Example 103, 6-(4-Fluoro-phenyl)-5-methyl-3-[3-(4-pyrrolidin-1-yl-piperidin-1-yl)-phenyl]-pyrazolo[1,5-a]pyrimidin-7-ylamine]
